Patent publication US12344599B2, “Prodigiosin analogs and methods of use” (Institute For Cancer Research, priority 2016, dated 2025)

How the values were obtained:
[1] = tested on: CAL-27; assay: CellTiterGlo cell viability assay, CAL-27; assay type: cell-based; settings: Homo sapiens; CAL-27, head & neck squamous cell carcinoma, p53 H193L, 72 hours
Description: (§1) • 1) Cell lines: HT29, SW480, DLD-1, HCT116, and p53-null HCT116 cells, H1975, MDA-MD-231, U251, FaDu, CAL-27, PANC-1, Aspc-1, and MRC5 were obtained from the ATCC and cultured as recommended. Cells were regularly authenticated by bioluminescence, growth, and morphologic observation. The cells were routinely examined for Mycoplasma and all cell lines underwent STR authentication. • 2) Western blotting: After treatment, protein lysates were collected for Western blot analysis. 15 μg of protein was used for SDS-PAGE. After primary and secondary antibody incubations, the signal was detected by chemiluminescent detection kit, imaged by Syngene (Imgen Technologies). […] The cell viability was assessed by CellTiterGlo bioluminescent cell proliferation assay (Promega), following the manufacturer's protocol. Bioluminescence imaging was measured using the IVIS imager. Percentage of cell viability (mean±SEM) at each dose was calculated against the respective DMSO control. The IC50 values were determined from the sigmoidal dose-response curves using GraphPad Prims4. • 4) Caspase activity assay: Cells were seeded in 96-well plate (1×10^4 cells/well). […] The caspase 3/7 activity was assessed by Caspase-Glo® 3/7 Assay kit (Promega), following the manufacturer's protocol. Bioluminescence imaging was measured using the IVIS imager. […]

[2] = tested on: HT29 cells; assay: qRT-PCR of p53 target gene mRNA, HT29; assay type: cell-based, human; settings: HT29, 1 μM, 8 and 19 hours post-treatment
Description: as §1

[3] = tested on: MDA-MB-468; assay: CellTiterGlo cell viability assay, MDA-MB-468; assay type: cell-based; settings: Homo sapiens; MDA-MB-468, breast cancer, p53 R273H, 72 hours
[4] = tested on: CCD 841 Con; assay: CellTiterGlo cell viability assay, CCD 841 Con normal colon cells; assay type: cell-based; settings: Homo sapiens, non-transformed colorectal epithelial cells, p53 WT, 72 hours
Description: Cells were seeded in 96-well plates (6×10^3 cells/well). Cells were treated with different concentrations of compounds or dimethyl sulfoxide (DMSO) as a control for 72 hours. The cell viability was assessed by CellTiterGlo bioluminescent cell proliferation assay (Promega), following the manufacturer's protocol. Bioluminescence imaging was measured using the IVIS imager. Percentage of cell viability (mean±SEM) at each dose was calculated against the respective DMSO control. The IC50 values were determined from the sigmoidal dose-response curves using GraphPad Prism.

[5] = tested on: ATF4 and CHOP in HCT116 p53−/− cells; assay: Western blot of ATF4 and CHOP, HCT116 p53−/−; assay type: cell-based, human
Description: as §1

[6] = tested on: caspase 3/7; assay: Caspase-Glo 3/7 caspase activity assay; assay type: cell-based, human; settings: mutant p53 and p53-null cancer cells, 24 hours
Description: as §1

[7] = tested on: PUMA and DR5 in HT29 and HCT116 p53−/− cell lines; assay: Western blot of PUMA and DR5, comparison with regorafenib; assay type: cell-based, human; settings: 4 μM, 24-hour time point
Description: After treatment, protein lysates were collected for Western blot analysis. A total of […] of protein was used for SDS-PAGE. After primary and secondary antibody incubations, the signal was detected by a chemiluminescence detection kit, imaged by Syngene (Imgen Technologies). Antibodies for PUMA (for IHC), p53 (Santa Cruz Biotechnology), caspase 8, cleaved caspase 8, caspase 9, caspase 3, cleavage PARP, eIF2α, p-eIF2α (Ser51), CHOP, ATF4, DR5, FOXO3a, p-FOXO3a (Ser253), NF-κB p65, p-NF-κB p65 (Ser536), c-Jun, p-c-Jun (Ser63), JNK, p-JNK (Thr183/Tyr185), PUMA (for WB), c-Myc, phosphor-S62-cMyc (Cell Signaling Technology), Noxa, p21 (Calbiochem), p73 (Bethyl laboratories Inc), Ran (BD Biosciences), […] (Sigma).
Regorafenib is an FDA-approved drug for treatment of metastatic colorectal cancer, advanced gastrointestinal stromal tumors and hepatocellular carcinoma. Regorafenib inhibits ERK and leads to the induction of PUMA through the GSK3β/NF-κB axis and induces PUMA-mediated apoptosis in colon cancer cell lines (Chen et al., Clin Cancer Res, 2014, 20, 3472-3484). PG3-Oc was compared with regorafenib in the induction of PUMA and DR5. Regorafenib (40 μM and 24 hours treatment) was used as a control, as previously reported (Chen et al., Clin Cancer Res, 2014, 20, 3472-3484).

CCCCCCCCOC(=O)CCc1c(C)[nH]c(/C=C2\N=C(c3ccc[nH]3)C=C2OC)c1C [PG3-Oc, Octyl (Z)-3-(5-((4′-methoxy-1H,5′H-[2,2′-bipyrrol]-5′-ylidene)methyl)-2,4-dimethyl-1H-pyrrol-3-yl)propanoate]
IC50 [1]: 33.9 nM | induction of p21 mRNA [2]: Over 3 fold | IC50 [3]: 97.6 nM | IC50 [4]: 375 nM | concentration at which induction of ATF4 and CHOP occurred [5]: 1.25 µM | increase in caspase 3/7 activity as compared to untreated cells [6]: 2 fold | level of PUMA and DR5 induced compared to 40 μM regorafenib [7]: much higher level of PUMA and DR5
